Source: patent US12077503B2, “Substituted cyclic amides and their use as herbicides” (FMC CORPORATION, priority 2015, dated 2024)

Assays:
Assay type in all cases: in vivo
[1] = tested on: giant foxtail (Setaria faberi); assay: Test G Post-Emergence Protocol; settings: Setaria faberi, post-emergence, 312 h, read-out: Foxtail, Giant damage rating
How it was run: (§1)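 A glasshouse post-emergence test: 8-day-old plants sprayed at 15.625, 62.5 or 250 g/ha, then grown at 24/16 °C day/night with 14 h light and 65% humidity. Damage rated 13 days later, 0–100.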

[2] = tested on: redroot pigweed (Amaranthus retroflexus); assay: Test G Post-Emergence Protocol; settings: Amaranthus retroflexus, post-emergence, 312 h, read-out: Pigweed, Redroot damage rating
How it was run: as §1

[3] = tested on: barnyardgrass (Echinochloa crus-galli); assay: Test G Post-Emergence Protocol; settings: Echinochloa crus-galli, post-emergence, 312 h, read-out: Barnyardgrass damage rating
How it was run: as §1

[4] = tested on: velvetleaf (Abutilon theophrasti); assay: Test G Post-Emergence Protocol; settings: Abutilon theophrasti, post-emergence, 312 h, read-out: Velvetleaf damage rating
How it was run: as §1

corn (Zea mays) [5] = assay: Test G Post-Emergence Protocol; settings: Zea mays, post-emergence, 312 h, read-out: Corn damage rating
How it was run: as §1

[6] = tested on: ivy-leaved morning glory (Ipomoea hederacea); assay: Test G Post-Emergence Protocol; settings: Ipomoea, post-emergence, 312 h, read-out: Morningglory, Ivy-leaved damage rating
How it was run: as §1

[7] = tested on: giant foxtail (Setaria faberi); assay: Test G Pre-Emergence Protocol; settings: Setaria faberi, pre-emergence, 312 h, evaluated after 13 days
How it was run: (§2)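 Glasshouse pre-emergence test: soil-sown seeds, sprayed after 1 d at 15.625, 62.5 or 250 g/ha. Conditions 24/16° C day/night, 14 h light, 65% humidity, watering twice daily. Rating 13 d post-spray (100 = total damage).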

[8] = tested on: redroot pigweed (Amaranthus retroflexus); assay: Test G Pre-Emergence Protocol; settings: Amaranthus retroflexus, pre-emergence, 312 h, evaluated after 13 days
How it was run: as §2

[9] = tested on: barnyardgrass (Echinochloa crus-galli); assay: Test G Pre-Emergence Protocol; settings: Echinochloa crus-galli, pre-emergence, 312 h, evaluated after 13 days
How it was run: as §2

[10] = tested on: velvetleaf (Abutilon theophrasti); assay: Test G Pre-Emergence Protocol; settings: Abutilon theophrasti, pre-emergence, 312 h, evaluated after 13 days
How it was run: as §2

corn (Zea mays) [11] = assay: Test G Pre-Emergence Protocol; settings: Zea mays, pre-emergence, 312 h, evaluated after 13 days
How it was run: as §2

[12] = tested on: ivy-leaved morning glory (Ipomoea hederacea); assay: Test G Pre-Emergence Protocol; settings: Ipomoea, pre-emergence, 312 h, evaluated after 13 days
How it was run: as §2

[13] = 15.625 g ai/ha, evaluated after 13 days (100=total damage to plant; 0=no damage to plant)
[14] = 62.5 g ai/ha, evaluated after 13 days, 100=total damage to plant, 0=no damage to plant
[15] = 250 g ai/ha, evaluated after 13 days, 100=total damage to plant, 0=no damage to plant

CN1CC(c2cc(F)c(Cl)c(F)c2)C(C(=O)Nc2cccc(F)c2F)C1=O (stereo not drawn) [Compound 1703]
pest or weed control at 15.625 g/ha [1, 13]: 70% | pest or weed control at 62.5 g/ha [1, 14]: 70% | pest or weed control at 250 g/ha [1, 15]: 80% | pest or weed control at 15.625 g/ha [2, 13]: 20% | pest or weed control at 62.5 g/ha [2, 14]: 60% | pest or weed control at 250 g/ha [2, 15]: 80% | pest or weed control at 15.625 g/ha [3, 13]: 50% | pest or weed control at 62.5 g/ha [3, 14]: 70% | pest or weed control at 250 g/ha [3, 15]: 80% | pest or weed control at 15.625 g/ha [4, 13]: 10% | pest or weed control at 62.5 g/ha [4, 14]: 40% | pest or weed control at 250 g/ha [4, 15]: 70% | plant injury at 15.625 g/ha (corn (Zea mays) [5]; [13]): 0% | plant injury at 62.5 g/ha (corn (Zea mays) [5]; [14]): 0% | plant injury at 250 g/ha (corn (Zea mays) [5]; [15]): 80% | pest or weed control at 15.625 g/ha [6, 13]: 60% | pest or weed control at 62.5 g/ha [6, 14]: 60% | pest or weed control at 250 g/ha [6, 15]: 60% | pest or weed control at 15.625 g/ha ([7]; 15.625 g ai/ha, read-out: Foxtail, Giant damage rating (100=total damage to plant; 0=no damage to plant)): 80% | pest or weed control at 62.5 g/ha ([7]; 62.5 g ai/ha, 100=total damage to plant, 0=no damage to plant, read-out: Foxtail, Giant damage rating): 80% | pest or weed control at 250 g/ha ([7]; 250 g ai/ha, read-out: Foxtail, Giant damage rating (100=total damage to plant; 0=no damage to plant)): 90% | pest or weed control at 15.625 g/ha ([8]; 15.625 g ai/ha, read-out: Pigweed, Redroot damage rating (100=total damage to plant; 0=no damage to plant)): 0% | pest or weed control at 62.5 g/ha ([8]; 62.5 g ai/ha, 100=total damage to plant, 0=no damage to plant, read-out: Pigweed, Redroot damage rating): 0% | pest or weed control at 250 g/ha ([8]; 250 g ai/ha, read-out: Pigweed, Redroot damage rating (100=total damage to plant; 0=no damage to plant)): 10% | pest or weed control at 15.625 g/ha ([9]; 15.625 g ai/ha, read-out: Barnyardgrass damage rating (100=total damage to plant; 0=no damage to plant)): 50% | pest or weed control at 62.5 g/ha ([9]; 62.5 g ai/ha, 100=total damage to plant, 0=no damage to plant, read-out: Barnyardgrass damage rating): 80% | pest or weed control at 250 g/ha ([9]; 250 g ai/ha, read-out: Barnyardgrass damage rating (100=total damage to plant; 0=no damage to plant)): 80% | pest or weed control at 15.625 g/ha ([10]; 15.625 g ai/ha, read-out: Velvetleaf damage rating (100=total damage to plant; 0=no damage to plant)): 0% | pest or weed control at 62.5 g/ha ([10]; 62.5 g ai/ha, 100=total damage to plant, 0=no damage to plant, read-out: Velvetleaf damage rating): 0% | pest or weed control at 250 g/ha ([10]; 250 g ai/ha, read-out: Velvetleaf damage rating (100=total damage to plant; 0=no damage to plant)): 30% | plant injury at 15.625 g/ha (corn (Zea mays) [11]; 15.625 g ai/ha, read-out: Corn damage rating (100=total damage to plant; 0=no damage to plant)): 0% | plant injury at 62.5 g/ha (corn (Zea mays) [11]; 62.5 g ai/ha, 100=total damage to plant, 0=no damage to plant, read-out: Corn damage rating): 60% | plant injury at 250 g/ha (corn (Zea mays) [11]; 250 g ai/ha, read-out: Corn damage rating (100=total damage to plant; 0=no damage to plant)): 80% | pest or weed control at 15.625 g/ha ([12]; 15.625 g ai/ha, read-out: Morningglory, Ivy-leaved damage rating (100=total damage to plant; 0=no damage to plant)): 0% | pest or weed control at 62.5 g/ha ([12]; 62.5 g ai/ha, 100=total damage to plant, 0=no damage to plant, read-out: Morningglory, Ivy-leaved damage rating): 0% | pest or weed control at 250 g/ha ([12]; 250 g ai/ha, read-out: Morningglory, Ivy-leaved damage rating (100=total damage to plant; 0=no damage to plant)): 40%
